Data set [1] deals with hiPS-BMECs. Particulars: cited from earlier work.
Data set [2] relates to hiPS-BMECs. As to the kind of experiment: Permeability experiments in the 3D-BBB system (hiPS-BMECs on OrganoPlate 3-lane). How it is done: (§1) The 3D-BBB system using the OrganoPlate® 3-lane plate was constructed with some modifications to the protocol published by MIMETAS. During the differentiation of hiPS-BMECs, to separate the capillary side from the brain side, extracellular matrix hydrogel composed of 4 mg/mL collagen I (Cultrex 3D Matrix Rat Collagen-I, 5 mg/mL, AMSbio), 100 mM HEPES, and 3.7 mg/mL NaHCO3 was dispensed into the middle lane. The plate was incubated at 37°C for 15 min to polymerize collagen I. After incubation, HBSS (+) without phenol red (Fujifilm Wako) was added to the gel channel to prevent the gel from drying out. […] The suspension was injected into capillary lanes precoated with fibronectin/collagen IV solution (PharmCo-Cell). After seeding the cells, the plate was incubated for 4 h at a tilt to allow the cells to adhere to the gel. After incubation, the medium was added to the capillary channels and the plate was placed on an OrganoFlow® (MIMETAS), switching between a + 7° and − 7° inclination every 8 min to create a bidirectional flow mimicking blood flow. On day 9, the medium in the capillary channels was replaced with fresh ESFM + 1% hPDS containing 10 μM MMP inhibitor.
(§2) Permeability experiments were performed on day 10, at 48 h after seeding hiPS-BMECs on the plate. […] The assay buffer containing test drugs was added to the donor side to initiate the assay, and the plate was then incubated on the OrganoFlow® at 37°C for the designated times. Transporter inhibitors were added to both the donor and receiver sides at the start of preincubation. In all permeability experiments, the amount of lucifer yellow transported through the paracellular pathway to the receiver side was measured with a SpectraMax i3x (Molecular Devices, San Jose, CA) as a measure of cell-to-cell tightness. The protocol for the permeability experiments, including the composition of the assay buffer, is described in detail in the Supplementary Material. The apparent permeability coefficient (Papp) was calculated as follows: Papp=(dQ/dt)/D0×S
(§3) where dQ/dt, D0, and S are the transport velocity of the test drugs, the initial concentration of test drugs on the donor side, and the surface area of the extracellular matrix hydrogel in the middle lane, respectively. The efflux ratio value was calculated from the Papp value in the capillary-to-brain (A-to-B) and brain-to-capillary (B-to-A) directions as follows: Effluxratio=Papp,B-to-A/Papp,A-to-B.
(§4) The test drugs were quantified using a high-performance liquid chromatography (HPLC)-tandem mass spectrometry system composed of a Nexera-XR (Shimazu, Kyoto, Japan) HPLC system connected to a Qtrap4500 (AB Sciex, Foster City, CA, USA) mass spectrometer with an electrospray ionization interface.
(§5) On day 10, remove the medium in the capillary lane of the 3D-BBB system. After removal, 100 µL of assay buffer (50 µL in each Well ➀, ②, ⑤ and ⑥) was added to the capillary and brain lane for washing. After 30 min for washing, 100 µL of a fresh assay buffer containing the drug was added to the donor side (A-to-B direction; 50 µL in each Well ➀ and ②, B-to-A direction; 50 µL in each Well ⑤ and ⑥). In addition, 100 µL of a fresh assay buffer was added to the receiver side (A-to-B direction; 50 µL in each Well ⑤ and ⑥, B-to-A direction; 50 µL in each Well ➀ and ②). Inhibitors were added on both sides of the donor and receiver to avoid a gradient in concentration. At the designed sampling time, 50 µL of assay buffer was collected from the receiver side (A-to-B direction; 25 µL in each Well ⑤ and ⑥, B-to-A direction; 25 µL in each Well ➀ and ②), and 50 µL of a fresh assay buffer was added.

The next data set has as its system human BBB. On the set-up: method as in PMID 24947467. The conditions noted are these: prediction for human BBB; cited from earlier work.
Data set [3] concerns monkey in vitro BBB model. On the set-up: method as in PMID 34575559. The conditions noted are these: cited from earlier work.
Data set [4] in a line: Permeability experiments in the 3D-BBB system (hiPS-BMECs on OrganoPlate 3-lane). Particulars: human. How it is done: as §1, §2, §3, §4, §5
A further data set deals with BCRP. Described as above. The conditions noted are these: human, pH 7.4, with Ko143 1 µM (BCRP inhibitor), Efflux ratio (B-to-A/A-to-B), + 1 μM Ko143 (BCRP inhibitor). How it is done: as §1, §2, §3, §4, §5
The next data set relates to MCTs. Put plainly: Inhibition of H+-gradient-promoted [14C] L-lactate transport in the 3D-BBB system. It counts as cell-based, human. Particulars: 20 nM AZD3965; one lane pH 6.0, opposite lane pH 7.4.
Data set [5] is described as follows: Permeability in the hydrogel without hiPS-BMECs (OrganoPlate 3-lane). The class given is in vitro ADME. Particulars: pH 7.4, upper limit of the system, data not shown.
The mark [6] stands for this setting: pH 7.4, Efflux ratio (B-to-A/A-to-B), Control.

As a reminder, the Papp A→B is how fast a substance crosses the layer from the apical side. By Papp B→A is commonly meant how fast a substance crosses the layer from the basolateral side. A word on the efflux ratio: it is a quotient of directional permeabilities that is used to spot active efflux. As a reminder, the Papp is a coefficient for how fast a substance crosses the barrier.

Procedure for MCTs: Permeability experiments were performed on day 10, at 48 h after seeding hiPS-BMECs on the plate. After removal of the medium in the capillary channels, the assay buffer (pH 7.4) was added to both sides of the capillary and brain channels and preincubated on the OrganoFlow® for 30 min. The assay buffer containing test drugs was added to the donor side to initiate the assay, and the plate was then incubated on the OrganoFlow® at 37°C for the designated times. Transporter inhibitors were added to both the donor and receiver sides at the start of preincubation. In all permeability experiments, the amount of lucifer yellow transported through the paracellular pathway to the receiver side was measured with a SpectraMax i3x (Molecular Devices, San Jose, CA) as a measure of cell-to-cell tightness. […] The apparent permeability coefficient (Papp) was calculated as follows: Papp=(dQ/dt)/D0×S
On day 10, remove the medium in the capillary lane of the 3D-BBB system. After removal, 100 µL of assay buffer (50 µL in each Well ➀, ②, ⑤ and ⑥) was added to the capillary and brain lane for washing. […] At 3.5 hr after the start of permeability experiment, the transport amount of lucifer yellow on the receiver side was measured to check for leakage, and all donor and receiver were collected at 4 hr.

Take lucifer yellow: the “Papp in 2D culture of hiPS-BMECs” value with hiPS-BMECs [1] is given as 0.0845 × 10^–6 cm/s. Moreover, in the data set with hiPS-BMECs [2], the “Block of leakage by hiPS-BMECs” value is reported as “more than 99%”.
Consider `C=C[C@H]1C[N@@]2CC[C@H]1C[C@@H]2[C@@H](O)c1ccnc2ccc(OC)cc12` [Quinidine], for which the Efflux ratio in the data set with human BBB was approximately 13.4. Also, in data set [3], the Efflux ratio result is “approximately 1.7”. In data set [4] (pH 7.4), the Papp A→B at 4 h came out at 21.6 ×10⁻⁶ cm/s and the apparent permeability from basolateral to apical (Papp B→A) at 4 h amounted to 22.8 ×10⁻⁶ cm/s. Further, in data set [4] (setting [6]), the efflux ratio at 4 h was 1.06.
For `Nc1nc(Cl)nc2c1ncn2[C@H]1C[C@H](O)[C@@H](CO)O1` [Cladribine], the efflux ratio at 4 h in the data set on BCRP was 1.45; in data set [4] (setting [6]), 5.6. The “Efflux ratio (B-to-A/A-to-B)” value in the data set on hiPS-BMECs [2] (Control) was found to be 5.61. In addition, the Papp A→B at 4 h in data set [4] (pH 7.4) amounted to 2.69 ×10⁻⁶ cm/s. The Papp B→A at 4 h in data set [4] (pH 7.4) came out at 15.1 ×10⁻⁶ cm/s.
Take `Cc1[nH]nc(C(F)(F)F)c1Cc1sc2c(c1C(=O)N1C[C@](C)(O)CO1)c(=O)n(C)c(=O)n2C(C)C` [AZD3965]: the “Reduction of [14C] L-lactate transport promoted by the H+-gradient” value with MCTs is recorded as “approximately 60%”.
Regarding `NCC1(CC(=O)O)CCCCC1` [Gabapentin], in data set [4] (pH 7.4), the Papp A→B at 4 h came to 16 ×10⁻⁶ cm/s, the Papp B→A at 4 h stood at 6.4 ×10⁻⁶ cm/s and the efflux ratio at 4 h was 0.401.
As to `[14CH3][14CH](O)[14C](=O)[O-].[Na+]` [[^14C] L-Lactate, Lactic acid sodium salt, L-[^14C(U)]], the “Efflux ratio (B-to-A/A-to-B)” value is given as 0.257 with hiPS-BMECs [2] (A: pH 6.0—B: pH 7.4), 3.07 with hiPS-BMECs [2] (A: pH 7.4—B: pH 6.0) and 0.944 with hiPS-BMECs [2] (A: pH 7.4—B: pH 7.4). Moreover, the “Papp A-to-B” value with hiPS-BMECs [2] (A: pH 6.0—B: pH 7.4) is 34.1 × 10^–6 cm/s; in the data set on hiPS-BMECs [2] (A: pH 6.0—B: pH 7.4, + 20 nM AZD3965), 12.0 × 10^–6 cm/s; in the data set on hiPS-BMECs [2] (A: pH 7.4—B: pH 6.0) it was 7.68 × 10^–6 cm/s; in the data set on hiPS-BMECs [2] (A: pH 7.4—B: pH 7.4) it was 19.1 × 10^–6 cm/s. For the same molecule, the “Papp B-to-A” value in the data set on hiPS-BMECs [2] (A: pH 6.0—B: pH 7.4) is 8.74 × 10^–6 cm/s; in the data set on hiPS-BMECs [2] (A: pH 7.4—B: pH 6.0) it was 23.6 × 10^–6 cm/s; in the data set with hiPS-BMECs [2] (A: pH 7.4—B: pH 6.0, + 20 nM AZD3965), 9.60 × 10^–6 cm/s; with hiPS-BMECs [2] (A: pH 7.4—B: pH 7.4), 18.1 × 10^–6 cm/s.
As for `Cc1cc(=O)n(-c2ccccc2)n1C` [Antipyrine], the apparent permeability (Papp) at 4 h in data set [5] came to 59.2 ×10⁻⁶ cm/s. In data set [4] (pH 7.4), this molecule displayed a Papp A→B at 4 h of 33.4 ×10⁻⁶ cm/s and a basolateral-to-apical permeability (Papp B→A) at 4 h of 35.1 ×10⁻⁶ cm/s. In addition, the efflux ratio at 4 h in data set [4] (setting [6]) is 1.05.
Consider `NC(N)=NCCC[C@H](N)C(=O)O` [[^3H] L-Arginine, Arginine, L-[2,3,4-^3H]], for which the “Efflux ratio (B-to-A/A-to-B)” value with hiPS-BMECs [2] (Control) was found to be 0.410. Besides, in the data set on hiPS-BMECs [2] (Control, brain-to-capillary, pH 7.4), the “Papp B-to-A” value is listed as 5.77 × 10^–6 cm/s. For the same molecule, the “Papp A-to-B” value with hiPS-BMECs [2] (Control, capillary-to-brain, pH 7.4) is reported as 14.1 × 10^–6 cm/s.
